In US7741464B2, “Compositions and methods of using CRMP-1 and its fragments for treating cancer” (Advpharma Inc., priority 2007, dated 2010):
pIC50: −log10 of the molar value. Like-named read-outs stand apart in the source and are kept apart here. Values belong to the compound of their own block, whether it stands above or below them.

Legend:
[1] = tested on: poorly differenciated human lung adenocarcinoma cells; conditions: cells established from a patient; Shih et al., J. Natl. Cancer Inst. 93(18) (2001); cited from earlier work
MCF-7 cells = experiment: Antiproliferative effect after transient transfection; assay type: cell-based, human; conditions: MCF-7, transient transfection, 5-days incubation, normalized to pCI-neo control plasmid
Description: (§1) All cell lines were purchased from Food Industry Research and Development Institute (FIRDI), Hsinshu, Taiwan. They were originated from different tissues or organs, including: • (1) human lung cancer cells: adenocarcinoma A549 (BCRC60074), squamous cell carcinoma H520 (BCRC60124), and large-cell carcinoma H460 (CCRC600373), • (2) human prostate cancer cell: adenocarcinoma PC-3 (CCRC60112) and carcinoma DU145 (CCRC60348) isolated from metastatic brain site; • (3) human colon cancer cells: adenocarcinoma SW 480 (CCRC60249), CC-M1 (BCRC60448), and DLD-1 (CCRC60132); • (4) human breast cancer cells: ductal carcinoma BT-474 (CCRC 60359), MCF-7 (CCRC60436), and ZR-75-1 (CCRC60055); • (5) Chinese hamster lung cell V79-4 (BCRC60183), and • (6) human prostate normal cell PZ-HPV-7 (CCRC60136).
(§2) The cultivation of cell lines was as described as the instruction provided by Food Industry Research and Development Institute (FIRDI), while 10% fetal bovine serum (JRH Biosciences, USA) was supplemented as final concentration, if necessary. The human prostate normal cell line PZ-HPV-7 was maintained in Keratinocyte-SFM medium (Life Technologies, Inc., US).
(§3) Mammalian cells were seeded to 6-well plate (Corning Inc., USA) with a cell density of 2˜8×10^5 and incubated at 37° C. for overnight prior to transfection. Each cell line was respectively transfected with the pCI-neo Mammalian Expression Vector (as control plasmid; Promega, USA) or with the hCRMP-1-related expression plasmid by using Lipofectamine™ Reagent (Invitrogen, #18324-020). A series of expression plasmid containing full-length or partial gene fragment of hCRMP-1, were pNCRMP1, pNCN1, pNCN3, pNCN4, pNCN5, pNCN6, and pNCN7, whose constructions were described in Example 1 and Example 2.
(§4) The nomenclature of transfected cell line was according to the cell line and expression plasmid and characterized as “cell line/expression plasmid.” Quantitation of viable cells after transfection was performed by using hemocytometer after 5-days incubation at 37° C. (R. Ian Freshney: Culture of Animal Cells, A Manual of Basic Technique, Chapter 20, pp. 309-312, WILEY-LISS, Canada (2000)).
(§5) The antiproliferative effect (in percentage) of each cell line transfected with individual expression plasmid was normalized with the same cell line transfected with control plasmid as follows: Antiproliferative effect=100%×(1−(number of cells transfected with expression plasmid÷number of cells transfected with control plasmid))

PC-3 cells = experiment: as above; assay type: cell-based, human; conditions: PC-3, transient transfection, 5-days incubation, normalized to pCI-neo control plasmid
Description: as §1, §2, §3, §4, §5

CC-M1 cells = experiment: as above; assay type: cell-based, human; conditions: 5-days incubation, normalized to pCI-neo control plasmid
Description: as §1, §2, §3, §4, §5

H460 cells = experiment: as above; assay type: cell-based, human; conditions: viable cells counted after 5-days incubation, normalized to pCI-neo control plasmid
Description: as §1, §2, §3, §4, §5

DU145 cells = experiment: as above; assay type: cell-based, human; conditions: for selectivity on antiproliferative ability: prostate cancer cells (PC-3, DU145) vs human prostate normal cell line PZ-HPV-7
Description: as §1, §2, §3, §4, §5

[2] = tested on: PC-3 transient transfectants; experiment: Chemosensitivity of transient transfectants (cell counting); assay type: cell-based; conditions: Homo sapiens, 72 h
Experimental: (§6) Six human cancer cell lines, including human colon cancer cell lines Caco-2, CC-M1, DLD-1; human prostate cancer cell lines DU145, PC-3; and human breast cancer cell line MCF-7, were tested in an experiment on improvement of chemosensitivity. Two expression plasmids, pNCRMP1 and pNCN3, and the pCI-neo vector (control plasmid), were used for transfection, respectively. The general cultivation conditions and transfection procedures were the same as described in Example 3.
(§7) Treatment of transient transfected cell lines using chemical agent was immediately performed as follows, and quantification of viable cells was performed by counting using hemocytometer after 3-days incubation at 37° C.: • (1) Three types of transient transfected human colorectal cancer cells were treated with 5-fluorouracil; • (2) The transient transfected human prostate cancer cell line DU145 was treated with Adriamycin™ (doxorubicin), cyclophosphamide and etoposide; • (3) The transient transfected human prostate cancer cell line PC3 was treated with cyclophosphamide, etoposide, and paclitaxel; and, • (4) The transient transfected human breast cancer cell line MCF-7 was treated with Adriamycin™ (doxorubicin) and paclitaxel.

[3] = tested on: DU145 transient transfectants; experiment: as above; assay type: cell-based, human; conditions: read-out: IC50 of chemical agent
Experimental: as §6, §7

[4] = tested on: H520 stable transfectants; experiment: Chemosensitivity (MTT cytotoxicity) of stable transfectants; assay type: cell-based; conditions: Homo sapiens, read-out: IC50 of chemical agent
Description: Three human cancer cell lines, including lung cancer cell line H520 and two human prostate cancer cell lines (PC-3 and DU145) were applied for selection of stable transfectants. Four expression plasmids, including pNCRMP1, pNCN1, pNCN3, and pNCN4, and the pCI-neo vector (as control plasmid) were used for transfection, respectively. The general cultivation condition and transfection procedures were the same as described in Example 3. The transfected cells were further cultivated under the same conditions as their parental cell lines and selected with 0.6-1 mg antibiotic G418 per ml (Kao et al., Oncogene 16: 546-554 (1998); Xiaolin et al, Cancer Research 65: 9762-9770 (2005)).
Three agents, including caffeic acid phenethyl ester (CAPE; Sigma, US), Adriamycin™ (doxorubicin) (Pharmacia & Upjohn S.P.A. Milan, Italy), and paclitaxel (Taxol; Bristol-Myers Squibb Co., Wallingford, Conn.), were dissolved in DMSO (dimethyl sulfoxide; Sigma) for preparation of stock solution, respectively. A serial dilution was prepared with DPBS buffer for chemosensitivity tests. The human lung squamous carcinoma stable transfectants H520 were treated with both CAPE and Adriamycin™ (doxorubicin) for four different concentrations, e.g. 0.05, 0.01, 0.002, and 0.0004 mM, while the administering of paclitaxel was performed at different concentrations, e.g. 1000, 200, 40, and 8 nM. Both types of prostate stable transfectants were only treated with paclitaxel for eight concentrations ranging from 0.1 mM to 1.28 nM with 1/5 dilution each step.
MTT (3-(4,5-dimethylthiazol-2-yl)-2,5-diphenyltetrazolium bromide; Sigma, Inc.) assay (Monks et al., J. Natl. Cancer Inst. 83:757-766 (1991); Paull et al, J. Natl. Cancer Inst. 81:1088-1092 (1989)) was applied for studying the cytotoxic effect of indicated agent. The absorbance was measured both at 545 nm and at 690 nm (served as reference) using the 96-well spectrophotometer reader (Emax, Molecular Device Inc., California, US) (Chen et al., Yi Xue Za Zhi (Taipei) 46:7-16 (1990)). The relative growth inhibition was calculated as follows: Relative growth inhibition=100%×(1−(OD545nm (Treated cells)−OD690nm(Treated cells))÷(OD545nm(untreated cells)−OD690nm(untreated cells)))
The 50% inhibition concentration (IC50) was determined after graphical plotting of spectrophotometric measurements and interpolation by EXCEL software.

[5] = tested on: MCF-7 transient transfectants; experiment: Chemosensitivity of transient transfectants (cell counting); assay type: cell-based; conditions: Homo sapiens, MCF7, 72 h, read-out: IC50 of chemical agent
Experimental: as §6, §7

[6] = tested on: transient transfected colorectal cell lines (Caco-2, CC-M1, DLD-1); experiment: as above; assay type: cell-based, human; conditions: with pNCRMP1 or pNCN3 transient transfected colorectal cell lines; data not shown
Experimental: as §6, §7

[7] = NCI-H520, stable transfectant H520/pCI-neo/1 (control plasmid), MTT
[8] = NCI-H520, stable transfectant H520/pNCN1/1, MTT
[9] = NCI-H520, stable transfectant H520/pNCN3/1, MTT
[10] = NCI-H520, stable transfectant H520/pNCN4/1, MTT
[11] = NCI-H520, stable transfectant H520/pNCRMP1/1, MTT
[12] = Homo sapiens, DU-145, 72 h, transient transfectant DU145/pCIneo (control plasmid), 3-days incubation
[13] = Homo sapiens, DU-145, 72 h, transient transfectant DU145/pNCN3, 3-days incubation
[14] = Homo sapiens, DU-145, 72 h, transient transfectant DU145/pNCRMP1, 3-days incubation

Compound: full-length hCRMP-1: human collapsin response mediator protein-1, full-length protein with 572 amino acids (SEQ ID NO: 1)
- antiproliferative activity [1]: no antiproliferative activity
- Anti-proliferation effect (MCF-7 cells): inhibits cancer cell proliferation
- Anti-proliferation effect (PC-3 cells): inhibits cancer cell proliferation
- Anti-proliferation effect (CC-M1 cells): inhibits cancer cell proliferation
- Anti-proliferation effect (H460 cells): inhibits cancer cell proliferation
- Anti-proliferation effect (H460 cells; listed as full-length CRMP-1): has antiproliferative activity
- Anti-proliferation effect (DU145 cells; DU145, transient transfection, 5-days incubation, normalized to pCI-neo control plasmid): inhibits cancer cell proliferation

Compound: O=P1(N(CCCl)CCCl)NCCCO1 (centres unmarked) [Cyclophosphamide, cyclophosphamide]
- pIC50 ([2]; read-out: IC50 of chemical agent, transient transfectant PC-3/pCIneo (control plasmid), 3-days incubation): < 4.00
- pIC50 ([2]; read-out: IC50 of chemical agent, transient transfectant PC-3/pNCN3, 3-days incubation): 4.26
- pIC50 ([2]; read-out: IC50 of chemical agent, transient transfectant PC-3/pNCRMP1, 3-days incubation): < 4.00
- pIC50 ([3]; Homo sapiens, DU-145, 72 h): < 4.00
- pIC50 ([3]; transient transfectant DU145/pCIneo (control plasmid), 3-days incubation): < 4.00
- pIC50 ([3]; transient transfectant DU145/pNCN3, 3-days incubation): < 4.00

- pIC50 ([5]; transient transfectant MCF-7/pCIneo (control plasmid), 3-days incubation): 5.67
- pIC50 ([5]; transient transfectant MCF-7/pNCN3, 3-days incubation): 6.49
- pIC50 ([5]; transient transfectant MCF-7/pNCRMP1, 3-days incubation): 7.00
- pIC50 [3, 12]: 7.14
- pIC50 [3, 13]: 7.22
- pIC50 [3, 14]: 7.10
Compound: COc1cccc2c1C(=O)c1c(O)c3c(c(O)c1C2=O)C[C@@](O)(C(=O)CO)C[C@@H]3O[C@H]1C[C@H](N)[C@H](O)[C@H](C)O1 [Adriamycin ™ (doxorubicin), doxorubicin]
- pIC50 [4, 7]: 6.13
- pIC50 [4, 8]: > 6.40
- pIC50 [4, 9]: > 6.40
- pIC50 [4, 10]: 6.30
- pIC50 [4, 11]: > 6.40

Compound: CN3: active fragment of hCRMP-1, 208-480 of SEQ ID NO: 1 (SEQ ID NOS: 17 and 39)
- selectivity on antiproliferative ability (DU145 cells): around 20%

Compound: CN7: active fragment of hCRMP-1, 458-572 of SEQ ID NO: 1 (SEQ ID NOS: 25 and 43)
- selectivity on antiproliferative ability (DU145 cells): 28%

Compound: O=c1[nH]cc(F)c(=O)[nH]1 [5-fluorouracil]
- improvement of chemosensitivity [6]: no improvement of chemosensitivity

Compound: O=C(/C=C/c1ccc(O)c(O)c1)OCCc1ccccc1 [CAPE, caffeic acid phenethyl ester]
- pIC50 [4, 7]: < 4.30
- pIC50 [4, 8]: 4.64
- pIC50 [4, 9]: 4.54
- pIC50 [4, 10]: 4.57
- pIC50 [4, 11]: 4.77

- pIC50 ([2]; transient transfectant PC-3/pCIneo (control plasmid), 3-days incubation, read-out: IC50 of chemical agent): 4.19
- pIC50 ([2]; transient transfectant PC-3/pNCN3, 3-days incubation, read-out: IC50 of chemical agent): < 4.00
- pIC50 ([2]; transient transfectant PC-3/pNCRMP1, 3-days incubation, read-out: IC50 of chemical agent): 4.48
- pIC50 [3, 12]: 6.34
- pIC50 [3, 13]: 6.15
- pIC50 [3, 14]: 6.15
Compound: COc1cc([C@@H]2c3cc4c(cc3[C@@H](O[C@@H]3O[C@@H]5CO[C@@H](C)O[C@H]5[C@H](O)[C@H]3O)[C@H]3COC(=O)[C@H]23)OCO4)cc(OC)c1O [Etoposide, etoposide]
